The source of these data is PMC9775652, “Concomitant Administration of Red Ginseng Extract with Lactic Acid Bacteria Increases the Plasma Concentration of Deglycosylated Ginsenosides in Healthy Human Subjects” (Biomolecules, 2022).

For one series, the target named is T1, P-gp (Homo sapiens, UniProt P08183).
T1 construct: host or cells: LLC-PK1-P-gp cells (passage no. 25–28)
The experiment in a line: Transport of ginsenosides in P-gp-overexpressing LLC-PK1-P-gp cells. The class given is in vitro ADME.

In the next series the test system is LAB. Nature of the series: In vitro RGE fermentation with LAB. In kind it is in vitro ADME. As to conditions: RGE incubated with LAB (1 billion CFU) for 7 days at 37 °C; result in words.

T1 sequence (P08183 whole entry): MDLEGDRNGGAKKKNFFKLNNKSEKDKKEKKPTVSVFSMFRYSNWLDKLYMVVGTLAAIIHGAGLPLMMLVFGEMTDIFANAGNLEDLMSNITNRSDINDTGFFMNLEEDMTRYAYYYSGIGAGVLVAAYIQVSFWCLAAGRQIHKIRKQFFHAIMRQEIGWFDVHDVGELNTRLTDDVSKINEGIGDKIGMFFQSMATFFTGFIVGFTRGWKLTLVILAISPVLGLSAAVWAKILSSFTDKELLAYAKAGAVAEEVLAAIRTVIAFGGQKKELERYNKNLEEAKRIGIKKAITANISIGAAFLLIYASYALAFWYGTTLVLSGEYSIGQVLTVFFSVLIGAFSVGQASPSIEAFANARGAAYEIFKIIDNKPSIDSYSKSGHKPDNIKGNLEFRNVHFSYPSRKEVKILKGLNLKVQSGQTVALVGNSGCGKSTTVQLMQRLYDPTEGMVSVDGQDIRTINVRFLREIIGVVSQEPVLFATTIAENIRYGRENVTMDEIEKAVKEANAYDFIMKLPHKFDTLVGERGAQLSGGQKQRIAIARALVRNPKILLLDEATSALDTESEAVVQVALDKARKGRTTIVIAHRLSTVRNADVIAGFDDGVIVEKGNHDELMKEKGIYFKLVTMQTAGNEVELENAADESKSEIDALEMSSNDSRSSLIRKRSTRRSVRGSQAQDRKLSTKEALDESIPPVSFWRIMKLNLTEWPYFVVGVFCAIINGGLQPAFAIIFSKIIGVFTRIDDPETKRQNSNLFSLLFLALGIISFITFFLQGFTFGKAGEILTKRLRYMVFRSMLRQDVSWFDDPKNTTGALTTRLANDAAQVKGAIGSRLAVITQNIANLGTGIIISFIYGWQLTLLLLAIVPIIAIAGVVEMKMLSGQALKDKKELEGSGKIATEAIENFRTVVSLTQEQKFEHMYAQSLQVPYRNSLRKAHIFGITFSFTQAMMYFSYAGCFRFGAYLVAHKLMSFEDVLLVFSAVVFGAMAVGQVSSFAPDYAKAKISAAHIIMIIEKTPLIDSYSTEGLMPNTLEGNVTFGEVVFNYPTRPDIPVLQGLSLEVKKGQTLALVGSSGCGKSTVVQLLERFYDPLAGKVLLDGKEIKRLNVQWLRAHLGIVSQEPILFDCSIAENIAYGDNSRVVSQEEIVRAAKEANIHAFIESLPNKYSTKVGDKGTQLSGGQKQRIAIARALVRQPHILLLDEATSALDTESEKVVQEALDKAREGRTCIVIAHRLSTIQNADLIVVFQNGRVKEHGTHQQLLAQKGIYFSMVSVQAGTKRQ

Regarding `CC(C)=CCC[C@](C)(O)[C@H]1CC[C@]2(C)[C@@H]1[C@H](O)C[C@@H]1[C@@]3(C)CC[C@H](O[C@@H]4O[C@H](CO)[C@@H](O)[C@H](O)[C@H]4O)C(C)(C)[C@@H]3CC[C@]12C` [GRh2, ginsenoside Rh2], at P-gp (P-gp-mediated B to A transport in LLC-PK1-P-gp cells), the “CLint (intrinsic clearance)” value is 502 µL/min. At P-gp (pig, LLC-PK1, LLC-PK1-P-gp cells, 20 μM, B to A Papp divided by A to B Papp, read-out: ER), the efflux ratio at 20 μM is 18. The Papp A→B at 20 μM on P-gp (pig, LLC-PK1-P-gp cells, 20 μM, mean ± SD, n = 3, read-out: A to B permeability) was 0.08 ± 0.01 ×10⁻⁶ cm/s. For the same compound, at P-gp (pig, LLC-PK1-P-gp cells, 20 μM, mean ± SD, n = 3, read-out: B to A permeability), the Papp B→A at 20 μM is 1.39 ± 0.13 ×10⁻⁶ cm/s. Further, the “Relative abundance / metabolic activity following fermentation of RGE with LAB” value in the series on LAB is recorded as “significantly increased”.
